{"source": "patent US5573772A", "about": "“Methods for protecting tissues and organs from ischemic damage” (priority 1994, dated 1996)", "key": {"heart": {"system": "heart", "settings": "cited from earlier work"}, "isolated rabbit hearts [1]": {"system": "isolated rabbit hearts", "assay": "Dose-response of APNEA on infarct size in isolated rabbit hearts, Example 4 (Table A)", "protocol": "New Zealand white rabbits of either sex, between 1.4-2.4 kg, were anesthetized with intravenous sodium pentobarbital (30 mg/kg). The neck was opened and a tracheotomy was performed. The rabbits were ventilated with 100% oxygen via a positive pressure respirator (MD industries, Mobile, Ala.). Ventilation rate was 30-35 breaths per minute, and tidal volume was approximately 15 ml. A left thoracotomy was performed in the fourth intercostal space and pericardium was opened to expose the heart. A 2-0 silk suture with an RB taper needle was passed around a branch of the left coronary artery, and the end of the silk were threaded through a small vinyl tube to form a snare. The heads were quickly excised and mounted on a Langendorff apparatus and perfused at constant pressure with Krebs buffer containing (in mM) 118.5 NaCl, 4.7 KCl, 1.2 MgSO4, 1.2 K2 PO4, 24.3 NaHCO3, 2.5 CaCl2 and 10 glucose. […] The temperature of the perfusate was maintained at 37° C. The perfusion pressure was kept at 75 mm Hg. Pacing electrodes were placed on the right atrium and all hearts were paced at 200 beats/minute with pulses of 5 volts and 4 msec duration to keep the heart rate constant. A fluid-filled latex balloon connected to a transducer via PE240 tubing was inserted into the left ventricle. Balloon volume was adjusted to set the left ventricular diastolic pressure at 10 mm Hg at the beginning of the experiment. Total coronary artery flow was measured by timed collection of buffer from the chamber into a graduated cylinder. Regional ischemia was effected by pulling the snare tight and clamping the tube with a hemostat. Global ischemia was performed by clamping the inflow tubing of the Langendorff apparatus. Reperfusion was achieved by releasing the restriction. All hearts were allowed to equilibrate for 20 minutes before the experiments were started. Heart rate (HR), coronary flow (CF) and left ventricular developed pressure (LVDP) were recorded at the point just before and at the end of each treatment with the pacing momentarily turned off.\nFor the group to be exposed to ischemia, the silk suture under the coronary branch was tightly tied to occlude the artery at the end of each experiment, and a 0.5% suspension of fluorescent particles (1-10 um diameter from Duke Scientific Corp., Palo Alto, Calif.) were infused into the perfusate to mark the risk zone as the non-fluorescent tissue. The hearts were removed from the Langendorff apparatus, weighed and then frozen. The hearts were cut into 2 mm transverse slices. The slices were thawed and incubated in 1% triphenyl tetrazolium chloride (TTC) in pH 7.4 buffer for 20 minutes at 37° C. TTC reacts with NADH and dehydrogenase enzymes and stains all tissue still having them to a deep red color. […] After staining, the area of infarcted tissue (TTC negative tissue) and the risk zone (area lacking fluorescence under ultraviolet light) in each slice were traced. The area of infarct and risk zone were determined by planimetry of the tracing. The volume of infarcted myocardium and myocardium at risk was then calculated by multiplying the planimetered areas by the slice thickness.\nIn this study, applicants examined the effects of varying the dosage of APNEA on myocardial infarct size in Langendorff buffer-perfused rabbit hearts subject to 30 minutes of regional ischemia and 2 hours reperfusion. The methods utilized in this example are identical to those described in Example 1.\nSix groups of hearts were studied: control untreated hearts (n=10); APNEA 0.5 nM (n=6); APNEA 5 nM (n=6); APNEA 50 nM (n=6); APNEA 500 nM (n=6); and APNEA 500 nM+DPCPX 200 nM.(n=6) In all cases, APNEA (0.5-500 nM) was infused for 5 minutes, beginning 15 minutes prior to 30 minutes of ischemia. The regional ischemia was produced by occlusion of the coronary artery, followed by 120 minutes of reperfusion."}, "isolated rabbit hearts [2]": {"system": "isolated rabbit hearts", "assay": "Hemodynamic effects in non-ischemic, unpaced isolated rabbit hearts, Example 4", "settings": "APNEA 500 nM", "protocol": "In an additional group of 3 hearts that were not made ischemic, 500 nM APNEA was infused for 1 minute. This group of hearts was not paced to control heart rate, and the effects of APNEA on spontaneous heart rate and coronary flow were measured to determine the hemodynamic effects of APNEA."}, "[3]": {"system": "intact, blood perfused rabbit heart", "assay": "Infarct size in the intact anesthetized rabbit, 30 min ischemia and reperfusion, Example 2", "procedure": "In this study, the effect of the adenosine receptor agonist, I-APNEA, on infarct size in the anesthetized rabbit was compared to the protection observed with ischemic preconditioning (PC).\nNew Zealand White rabbits (1.5-2.5 kg) were anaesthetized with pentobarbital sodium (40 mg/kg) administered via a catheter in a marginal ear vein. The animals were intubated with a pediatric cuffed endotracheal tube and ventilated with room air using a positive pressure respirator (Harvard Apparatus, Natick, Mass.). The heart was exposed in situ via an incision between the left 4th and 5th ribs, and a branch of the left coronary artery was isolated, using a 3-0 silk suture on RB-taper needle, for later ligation to induce 30 minutes of ischemia followed by 180 minutes of reperfusion. A catheter inserted into a femoral vein was used for administration of fluids and drugs. Infarct size was measured using the method described in the section entitled \"Measurement of Infarct Size and Risk Area\" in Example 1.\nAll animals received 30 minutes of regional ischemia, induced by tightening the suture placed around the coronary artery. Following the 30 minutes of ischemia, the suture was loosened, and reperfusion was allowed for the ensuing 180 minutes. Control animals received only the 30 minutes of ischemia and 180 minutes of reperfusion (n=9). Ischemic preconditioning (PC) was induced by 5 minutes of occlusion of the coronary artery followed by 10 minutes of reperfusion before the 30 minutes of occlusion (n=7). In a separate group of rabbits, I-APNEA was delivered intravenously as a slow bolus injection (0.25 mg/kg), beginning 15 minutes prior to the 30 minutes occlusion (n=8). In two additional groups of rabbits, the effects of the A1-selective adenosine receptor blocker, DPCPX, were tested against the effects of PC (n=6) and I-APNEA (n=8). […] At the end of 120 minutes of reperfusion, all animals were killed by an overdose of pentobarbital, and risk area and infarct size were measured."}, "intact rabbit": {"system": "intact rabbit", "assay": "Bradycardia and mean arterial pressure in the anesthetized rabbit, Example 2", "settings": "DPCPX 0.5 mg/kg IV"}, "[4]": {"system": "A3 adenosine receptor (R226)", "settings": "cited from earlier work"}}}
{"smiles": "Nc1ncnc2c1ncn2[C@@H]1O[C@H](CO)[C@@H](O)[C@H]1O", "note": "[ADO, Adenosine]", "values": [{"measurement": "Sensation of anginal pain", "setting": "heart; in vivo", "result": "mediator of the sensation of anginal pain"}, {"measurement": "Hypotension", "setting": "heart; intravenous injection at doses required for ischemic preconditioning", "result": "too much hypotension"}]}
{"smiles": "Nc1ccc(CCNc2ncnc3c2ncn3[C@@H]2O[C@H](CO)[C@@H](O)[C@H]2O)cc1", "note": "[APNEA, N^6-(2-(4-aminophenyl)ethyl) adenosine]", "values": [{"measurement": "Effect on infarct size compared to untreated control", "setting": "isolated rabbit hearts [1]; APNEA 0.5 nM", "result": "no effect on infarct size"}, {"measurement": "Infarct Area", "setting": "isolated rabbit hearts [1]; APNEA 5 nM", "result": "14 ± 3 % of Risk"}, {"measurement": "Infarct Area", "setting": "isolated rabbit hearts [1]; APNEA 50 nM", "result": "14 ± 3 % of Risk"}, {"measurement": "Infarct Area", "setting": "isolated rabbit hearts [1]; APNEA 500 nM", "result": "8 ± 1 % of Risk"}, {"measurement": "Infarct Area", "setting": "isolated rabbit hearts [1]; APNEA 500 nM + DPCPX 200 nM", "result": "15 ± 5 % of Risk"}, {"measurement": "Effect on infarct size", "setting": "isolated rabbit hearts [1]; APNEA 5, 50, and 500 nM", "result": "reduced infarct size"}, {"measurement": "Infarct Area", "setting": "isolated rabbit hearts [1]; APNEA .5 nM, control 24 ± 1", "result": "22 ± 5 % of Risk"}, {"measurement": "Coronary flow after APNEA", "setting": "isolated rabbit hearts [2]; 1 minute, before 50±9, 3 hearts", "result": "58 ± 6", "unit": "mL/min"}, {"measurement": "Heart rate after APNEA", "setting": "isolated rabbit hearts [2]; 1 minute, before 178±7, 3 hearts", "result": "169±3", "unit": "beats/min"}, {"measurement": "Effect on heart rate or coronary flow", "setting": "isolated rabbit hearts [2]; non-ischemic hearts", "result": "no effect on heart rate or coronary flow"}]}
{"smiles": "CCCn1c(=O)c2[nH]c(C3CCCC3)nc2n(CCC)c1=O", "note": "[DPCPX, 8-cyclopentyl-1,3-dipropylxanthine]", "values": [{"measurement": "Infarct size", "setting": "[3]; DPCPX 0.5 mg/kg IV + I-APNEA 0.25 mg/kg", "result": "28±8.0", "unit": "%"}, {"measurement": "Infarct size", "setting": "[3]; DPCPX 0.5 mg/kg IV + PC", "result": "7±1.8", "unit": "%"}, {"measurement": "Effect on bradycardia associated with activation of the A1 adenosine receptor", "setting": "intact rabbit", "result": "abolish"}, {"measurement": "Effect on fall in mean arterial pressure with I-APNEA or R-PIA", "setting": "intact rabbit; I-APNEA 0.25 mg/kg or R-PIA 1 mg/kg, iv", "result": "attenuated"}, {"measurement": "Blockade of APNEA's infarct size reduction", "setting": "isolated rabbit hearts [1]; DPCPX 200 nM + APNEA 500 nM", "result": "not blocked"}, {"measurement": "Binding to R226", "setting": "[4]", "result": "not to bind"}]}
